For orientation: MIC means the smallest concentration in the dilution series that meets the test's criterion for growth inhibition. Low values mean a more susceptible organism, high ones a less susceptible organism.

Assay in all cases: ≥ marks a high value that may be exact or a test limit, other limits are often not marked, values filed in µg/mL are converted to µM
Assay [1] has as its system Candida albicans NCPF 1467.
In assay [2] the test system is Staphylococcus aureus NCTC 10788.
Assay [3] has as its system Enterococcus faecalis NCTC 12697.
Assay [4] deals with Staphylococcus aureus ATCC 12493.
Assay [5] concerns Escherichia coli NCTC 10418.
Assay [6] deals with Pseudomonas aeruginosa ATCC 27853.
Assay [7] relates to Vibrio campbellii KCCM 40684.
Assay [8] concerns Streptococcus iniae FP5228.
For assay [9], the system named is Vibrio anguillarum TR14001NF.
The subject of assay [10] is Streptococcus parauberis PH0710.
The test system of assay [11] is Edwardsiella piscicida FSW 910410.
In assay [12] the test system is Vibrio alginolyticus KCCM 2928.
Assay [13] concerns Vibrio harveyi ATCC 14126.
Assay [14] has as its system Vibrio ordalii KCCM 41669.
Assay [15] concerns Streptococcus parauberis KSP 28.
Assay [16] has as its system Serratia marcescens.
Assay [17] relates to Salmonella enterica subsp. enterica serovar Typhimurium ATCC 14028.
Assay [18] has as its system Klebsiella pneumoniae ATCC 10031.
The test system of assay [19] is Micrococcus luteus ATCC 4698.
The test system of assay [20] is Shigella dysenteriae ATCC 9752.
The test system of assay [21] is Pseudomonas aeruginosa ATCC 9027.
For assay [22], the system named is Escherichia coli.
In assay [23] the test system is Bacillus subtilis KCTC 1021.
Assay [24] has as its system Bacillus subtilis 168 HT.
Assay [25] deals with Staphylococcus haemolyticus 527.
Assay [26] relates to Escherichia coli K12 MG1655.
Assay [27] concerns Staphylococcus aureus ST88.
Assay [28] concerns Escherichia coli BL21.
The test system of assay [29] is Staphylococcus aureus ATCC BAA-41.
In assay [30] the test system is Staphylococcus epidermidis.
The subject of assay [31] is Staphylococcus aureus ATCC 6538P.
In assay [32] the test system is Pseudomonas aeruginosa PAO1.
Assay [33] relates to Acinetobacter baumannii ATCC 19606.
Assay [34] deals with Escherichia coli D31 CGSC 5165.
The subject of assay [35] is Staphylococcus aureus ATCC 35556.
The subject of assay [36] is Pseudomonas aeruginosa ATCC 47085.
Assay [37] concerns Staphylococcus aureus ATCC 2592.
Assay [38] relates to Cutibacterium acnes ATCC 6919.
Assay [39] deals with Cutibacterium acnes.
Assay [40] deals with Staphylococcus epidermidis 09A3726.
The subject of assay [41] is Staphylococcus epidermidis 09B2490.
Assay [42] concerns Cutibacterium acnes ATCC 11827.

In brackets after ≈: the same amount, converted by molar mass. Some results are limits rather than exact numbers.

With `CC[C@H](C)[C@H](NC(=O)[C@H](CCCCN)NC(=O)[C@@H]1CCCN1C(=O)[C@H](CC(C)C)NC(=O)[C@@H](N)Cc1ccccc1)C(=O)N[C@@H](CC(C)C)C(=O)N[C@@H](CCCCN)C(=O)N[C@H](C(=O)N[C@@H](C)C(=O)N[C@@H](C)C(=O)N[C@@H](CCCCN)C(N)=O)C(C)C` [FLPKILKVAAK], the MIC in assay [1] is no less than 256 µM; in [2], no less than 256 µM; in [3], no less than 512 µM; in assay [4] it was no less than 512 µM; in assay [5] it was no less than 512 µM; in [6] it was greater than 512 µM.

On to `CC[C@H](C)[C@H](NC(=O)[C@H](CCCCN)NC(=O)[C@@H](NC(=O)[C@@H](N)Cc1ccccc1)[C@@H](C)O)C(=O)N[C@@H](Cc1ccc(O)cc1)C(=O)NCC(=O)N[C@@H](CO)C(=O)N[C@@H](CCCN=C(N)N)C(=O)N[C@@H](CC(C)C)C(=O)N[C@@H](CCC(N)=O)C(=O)N[C@@H](CCCCN)C(=O)N[C@H](C(=O)N[C@@H](CC(C)C)C(=O)NCC(=O)N[C@@H](CC(N)=O)C(=O)O)C(C)C` [FTKIYGSRLQKVLGN], for which the MIC was no less than 51.3 µM in [7]; no less than 51.3 µM in [8]; no less than 290 µM in assay [9]; no less than 103 µM in assay [10]; no less than 290 µM in assay [11]; no less than 205 µM in [12]. Besides, the MIC in assay [13] is no less than 51.3 µM; in assay [14] it was no less than 205 µM; in [15], no less than 290 µM.

Take `CC[C@H](C)[C@H](NC(=O)CN)C(=O)N[C@@H](CC(C)C)C(=O)N[C@@H](CC(=O)O)C(=O)N[C@H](C(=O)N[C@@H](CC(C)C)C(=O)N[C@@H](CCCCN)C(=O)N[C@@H](CCC(N)=O)C(=O)N[C@@H](Cc1ccccc1)C(=O)N[C@@H](C)C(=O)N[C@@H](CCCCN)C(=O)NCC(=O)N[C@H](C(=O)NCC(=O)N[C@@H](CCCCN)C(=O)N[C@@H](Cc1c[nH]c2ccccc12)C(=O)N[C@@H](CC(C)C)C(=O)N[C@H](C(=O)N[C@@H](CCCCN)C(=O)NCC(=O)N[C@@H](C)C(=O)N[C@@H](C)C(=O)N[C@@H](CCC(N)=O)C(=O)O)C(C)C)C(C)C)[C@@H](C)O` [GILDTLKQFAKGVGKWLVKGAAQ]: the MIC was no less than 82.3 µM in assay [16]; 51.5 µM (≈ 125 µg/mL) in [17]; 10.3 µM (≈ 25 µg/mL) in assay [18]; 1.03 µM (≈ 2.5 µg/mL) in assay [19]; 20.6 µM (≈ 50 µg/mL) in [20]; 51.5 µM (≈ 125 µg/mL) in assay [21]. For the same compound, the minimum inhibitory concentration (MIC) in [22] and in assay [23] was 10.3 µM (≈ 25 µg/mL) each time.

Take `CC[C@H](C)[C@H](N)C(=O)NCC(=O)N[C@@H](CCCN=C(N)N)C(=O)N[C@@H](Cc1cnc[nH]1)C(=O)N[C@@H](Cc1ccccc1)C(=O)N[C@@H](CCCCN)C(=O)N[C@@H](CCCN=C(N)N)C(=O)N[C@@H](CCCN=C(N)N)C(=O)N[C@@H](CC(N)=O)C(=O)N[C@@H](CO)C(=O)N[C@H](C(=O)N[C@@H](Cc1c[nH]c2ccccc12)C(=O)NCC(=O)N[C@H](C(=O)N[C@@H](CS)C(=O)N[C@@H](Cc1c[nH]c2ccccc12)C(=O)N[C@@H](Cc1ccccc1)C(=O)O)[C@@H](C)CC)[C@@H](C)CC` [IGRHFKRRNSIWGICWF]: the MIC in assay [24] was 14.8 µM (≈ 32.2 µg/mL); in [25] it was 14.8 µM (≈ 32.2 µg/mL); in assay [26], 14.8 µM (≈ 32.2 µg/mL); in assay [27], no less than 100 µM.

For the compound `CC[C@H](C)[C@H](NC(=O)[C@H](CCCCN)NC(=O)[C@H](CCCCN)NC(=O)[C@H](Cc1ccccc1)NC(=O)[C@H](CC(C)C)NC(=O)[C@H](CCCCN)NC(=O)[C@H](Cc1c[nH]c2ccccc12)NC(=O)[C@@H](N)CCCCN)C(=O)NCC(=O)N[C@@H](C)C(=O)N[C@H](C(=O)N[C@@H](CC(C)C)C(=O)N[C@@H](CCCCN)C(=O)N[C@@H](CCCCN)C(=O)N[C@@H](CC(C)C)C(=O)O)C(C)C` [KWKLFKKIGAVLKKL], the minimal inhibitory concentration (MIC) came to 2 µM (≈ 3.6 µg/mL) in assay [28]; 8 µM (≈ 14.4 µg/mL) in assay [29]; 0.354 µM (≈ 0.637 µg/mL) in [30]; 5.66 µM (≈ 10.2 µg/mL) in [31]; 2.83 µM (≈ 5.09 µg/mL) in assay [32].

Take `CC[C@H](C)[C@H](NC(=O)[C@H](CCCCN)NC(=O)CNC(=O)[C@H](CC(C)C)NC(=O)[C@@H](NC(=O)[C@H](C)NC(=O)[C@H](CCCCN)NC(=O)CNC(=O)[C@H](C)NC(=O)CNC(=O)[C@H](CCCCN)NC(=O)[C@H](CCSC)NC(=O)[C@H](CCCCN)NC(=O)[C@@H](NC(=O)[C@H](Cc1c[nH]c2ccccc12)NC(=O)[C@H](CC(C)C)NC(=O)[C@H](CCCCN)NC(=O)[C@H](CCCCN)NC(=O)[C@H](CC(C)C)NC(=O)[C@@H](N)CC(C)C)[C@@H](C)O)C(C)C)C(=O)N[C@@H](CCCCN)C(=O)NCC(=O)N[C@@H](CC(C)C)C(=O)N[C@@H](CC(C)C)C(=O)O` [LLKKLWTKMKGAGKAVLGKIKGLL]: the MIC in assay [33] is 0.94 µM (≈ 2.44 µg/mL); in assay [34] it was 1.88 µM (≈ 4.88 µg/mL); in assay [35], 3.75 µM (≈ 9.73 µg/mL); in assay [36], 3.75 µM (≈ 9.73 µg/mL).

In the case of `CC(C)[C@H](N)C(=O)N[C@@H](CCCCN)C(=O)N[C@@H](CCCN=C(N)N)C(=O)N[C@@H](Cc1c[nH]c2ccccc12)C(=O)N[C@@H](CCCCN)C(=O)N[C@@H](CCCCN)C(=O)N[C@@H](Cc1c[nH]c2ccccc12)C(=O)N[C@@H](Cc1c[nH]c2ccccc12)C(=O)N[C@@H](CCCN=C(N)N)C(=O)N[C@@H](CCCCN)C(=O)N[C@@H](Cc1c[nH]c2ccccc12)C(=O)N[C@@H](CCCCN)C(=O)N[C@@H](CCCCN)C(=O)N[C@@H](Cc1c[nH]c2ccccc12)C(=O)N[C@H](C(N)=O)C(C)C` [VKRWKKWWRKWKKWV], the MIC in assay [37] came to 1.03 µM (≈ 2.3 µg/mL); in assay [38] it was 0.269 µM (≈ 0.6 µg/mL); in assay [39], 0.269 µM (≈ 0.6 µg/mL); in [40] it was 2.11 µM (≈ 4.7 µg/mL); in assay [41], 1.03 µM (≈ 2.3 µg/mL); in [42], 0.269 µM (≈ 0.6 µg/mL).

(Values after DBAASP.)
